The target of the experiment is T1, AURKC (Aurora C) (Homo sapiens, UniProt Q9UQB9).
T1 construct: purchased Thermo Fisher Scientific (Life Technologies) SelectScreen
In words: SelectScreen Z'LYTE. It counts as biochemical. Summed up: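 Compound tested in SelectScreen activity assays, Z'LYTE for CSF1R, CDK1/cyclin B and MAP2K6 and Adapta for CAMK1. ATP for CAMK1 was listed as 10, and Km app was used for CSF1R. Results are expressed in percent.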

Structures are written as SMILES.

T1 sequence (Q9UQB9 whole entry): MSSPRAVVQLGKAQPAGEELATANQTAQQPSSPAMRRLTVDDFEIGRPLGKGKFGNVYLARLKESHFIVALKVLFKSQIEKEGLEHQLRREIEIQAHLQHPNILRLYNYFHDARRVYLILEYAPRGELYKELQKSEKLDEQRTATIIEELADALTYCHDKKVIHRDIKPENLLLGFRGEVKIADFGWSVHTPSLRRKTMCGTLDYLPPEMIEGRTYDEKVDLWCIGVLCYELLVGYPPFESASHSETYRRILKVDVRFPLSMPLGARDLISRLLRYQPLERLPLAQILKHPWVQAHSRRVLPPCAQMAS

In the case of `CN(C(=O)CN1CCOCC1)c1ccc2sc3c(-c4cccc5c(=O)cc(N6CC7CCC(C6)O7)oc45)cccc3c2c1` [NU5455], the inhibition – broadly, the change of the read-out against control, counted positive when it falls – at 1 µM was -5.4%.

For the origin of these results see paper PMC6934184, “Selective DNA-PKcs inhibition extends the therapeutic index of localized radiotherapy and chemotherapy” (The Journal of Clinical Investigation, 2019).
